Measured values reported in US5705487A, “Antithrombotic agents” (priority 1995, dated 1998).
Counter-ions that a name gives are not always drawn.

Experiments:
Type in all cases: biochemical
[1] = biological target: Human Thrombin (Homo sapiens, UniProt P00734); assay: Inhibition of the amidase activity of thrombin (Kass); details: chromogenic substrate N-benzoyl-Phe-Val-Arg-p-nitroanilide; mean over range of concentrations
Experimental: The 150 μL of an aqueous solution of the chromogenic substrate (at 0.25 mg/mL) are added and the rates of hydrolysis of the substrate are measured by monitoring the reactions at 405 nm for the release of p-nitroaniline. Standard curves are constructed by plotting free thrombin concentration against hydrolysis rate. […] The amount of free inhibitor in each assay is calculated by subtracting the number of moles of bound thrombin from the number of moles of added inhibitor (test compound).
The Kass value is the hypothetical equilibrium constant for the reaction between thrombin and the test compound (I).
Kass is calculated for a range of concentrations of test compounds and the mean value is reported in units of liter per mole.

[2] = biological target: T1, factor Xa (Homo sapiens, UniProt P00742); assay: Kass, factor Xa chromogenic substrate assay; details: substrate N-Benzoyl-Ile-Glu-Gly-Arg-p-nitroanilide
T1 construct: Human factors X, Xa, IXa, XIa, and XIIa are purchased; purchased Enzyme Research Laboratories, South Bend, Ind

[3] = biological target: T2, Bovine trypsin (Bos taurus, UniProt P00760); assay: Kass, trypsin chromogenic substrate assay; details: substrate N-Benzoyl-Phe-Val-Arg-p-nitroanilide
T2 construct: Bovine trypsin is purchased from Worthington Biochemicals; purchased Worthington Biochemicals, Freehold, N.J
T2 sequence (P00760 24-246): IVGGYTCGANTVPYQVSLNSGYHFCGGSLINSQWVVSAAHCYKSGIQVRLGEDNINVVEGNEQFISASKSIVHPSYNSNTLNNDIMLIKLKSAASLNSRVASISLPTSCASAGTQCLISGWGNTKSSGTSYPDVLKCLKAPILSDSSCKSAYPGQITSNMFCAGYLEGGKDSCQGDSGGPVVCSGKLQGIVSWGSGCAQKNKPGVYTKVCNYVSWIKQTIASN

[4] = biological target: T3, Human plasmin (Homo sapiens, UniProt P00747); assay: Kass, plasmin chromogenic substrate assay; details: substrate H-D-Val-Leu-Lys-p-nitroanilide
T3 construct: Human plasmin is purchased from Boehringer Mannheim; purchased Boehringer Mannheim, Indianapolis, Ind
Experimental: (§3) By substantially following the procedures described above for human thrombin, and using other human blood coagulation system serine proteases and proteases of the fibrinolytic system with the appropriate chromogenic substrates, identified below, selectivity of the compounds of the present invention with respect to the coagulation factor serine proteases and with respect to the fibrinolytic system serine proteases are evaluated as well as their substantial lack of interference with serine proteases of the fibrinolytic system.
(§4) Human plasmin is purchased from Boehringer Mannheim, Indianapolis, Ind.; nt-PA is purchased as single chain activity reference from American Diagnostica, Greenwich, Conn.; modified-t-PA6 (mt-PA6) is prepared at Eli Lilly and Company by procedure known in the art (See, Burck, et al., J. Biol. Chem., 265, 5120-5177 (1990). Plasmin chromogenic substrate H-D-Val-Leu-Lys-p-nitroanilide and tissue plasminogen activator (t-PA) substrate H-D-Ile-Pro-Arg-p-nitroanilide are purchased from Kabi Vitrum, Stockholm, Sweden.

[5] = test system: Human Plasma; assay: Human plasma anticoagulation, thrombin time (TT); details: concentration required to double the clotting time
Experimental: (§1) Dog plasma and rat plasma is obtained from conscious mixed-breed hounds (either sex, Hazelton-LRE, Kalamazoo, Mich., U.S.A.) or from anesthetized male Sprague-Dawley rats (Harlan Sprague-Dawley, Inc., Indianapolis, Ind., U.S.A.) by venipuncture into 3.8 percent citrate. Fibrinogen is prepared from in-date ACD human blood as the fraction I-2 according to previous procedures and specifications. […] Human fibrinogen is also purchased as 98 percent pure/plasmin free from American Diagnostica, Greenwich, Conn. Coagulation reagents ACTIN, Thromboplastin, and Human plasma are from Baxter Healthcare Corp., Dade Division, Miami, Fla. Bovine thrombin from Parke-Davis ([…], Mich.) is used for coagulation assays in plasma.
(§2) Coagulation assay procedures are as previously described. […] A CoAScreener coagulation instrument (American LABor, Inc.) is used for all coagulation assay measurements. The prothrombin time (PT) is measured by adding 0.05 mL saline and 0.05 mL Thromboplastin-C reagent to 0.05 mL test plasma. The activated partial thromboplastin time (APTT) is measured by incubation of 0.05 mL test plasma with 0.05 mL Actin reagent for 120 seconds followed by 0.05 mL CaCl2 (0.02M). The thrombin time (TT) is measured by adding 0.05 mL saline and 0.05 mL thrombin (10 NIH units/mL) to 0.05 mL test plasma. The compounds of Formula I are added to human or animal plasma over a wide range of concentrations to determine prolongation effects on the APTT, PT, and TT assays. Linear extrapolations are performed to estimate the concentrations required to double the clotting time for each assay.

[6] = test system: Human Plasma; assay: Human plasma anticoagulation, activated partial thromboplastin time (APTT); details: concentration required to double the clotting time
Experimental: as §1, §2

[7] = test system: Human Plasma; assay: Human plasma anticoagulation, prothrombin time (PT); details: concentration required to double the clotting time
Experimental: as §1, §2

[8] = biological target: T4, t-PA (Homo sapiens, UniProt P00750); assay: Kass, t-PA chromogenic substrate assay; details: substrate H-D-Ile-Pro-Arg-p-nitroanilide
T4 construct: purchased American Diagnostica, Greenwich, Conn
T4 sequence (P00750 36-562): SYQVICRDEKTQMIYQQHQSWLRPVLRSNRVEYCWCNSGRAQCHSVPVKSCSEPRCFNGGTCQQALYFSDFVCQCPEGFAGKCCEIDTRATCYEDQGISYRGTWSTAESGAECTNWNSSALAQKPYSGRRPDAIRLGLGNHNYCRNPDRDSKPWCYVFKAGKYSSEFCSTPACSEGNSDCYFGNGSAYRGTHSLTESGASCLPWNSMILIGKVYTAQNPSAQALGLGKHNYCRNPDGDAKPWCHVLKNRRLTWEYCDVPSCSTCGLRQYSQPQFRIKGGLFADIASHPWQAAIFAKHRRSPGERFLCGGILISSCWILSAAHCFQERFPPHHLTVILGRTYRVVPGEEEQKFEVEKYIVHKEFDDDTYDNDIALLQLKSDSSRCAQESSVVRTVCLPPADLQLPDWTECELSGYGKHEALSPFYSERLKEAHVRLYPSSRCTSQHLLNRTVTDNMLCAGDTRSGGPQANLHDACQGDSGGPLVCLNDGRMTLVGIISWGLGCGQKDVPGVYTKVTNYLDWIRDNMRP
Experimental: as §3, §4

T1 sequence (P00742 235-488 limits assumed): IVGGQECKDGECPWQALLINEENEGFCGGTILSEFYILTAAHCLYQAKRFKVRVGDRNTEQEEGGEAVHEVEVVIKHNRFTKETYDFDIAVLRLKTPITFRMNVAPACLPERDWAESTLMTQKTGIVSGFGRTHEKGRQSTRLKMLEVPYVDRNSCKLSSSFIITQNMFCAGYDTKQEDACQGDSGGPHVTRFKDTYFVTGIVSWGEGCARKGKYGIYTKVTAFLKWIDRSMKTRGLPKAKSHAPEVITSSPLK
T1 sequence (P00742 41-179 partner limits assumed): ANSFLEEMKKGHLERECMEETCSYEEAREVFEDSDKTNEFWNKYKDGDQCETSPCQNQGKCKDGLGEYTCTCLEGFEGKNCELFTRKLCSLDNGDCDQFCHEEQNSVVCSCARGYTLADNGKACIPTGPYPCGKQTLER
T3 sequence (P00747 581-810 limits assumed): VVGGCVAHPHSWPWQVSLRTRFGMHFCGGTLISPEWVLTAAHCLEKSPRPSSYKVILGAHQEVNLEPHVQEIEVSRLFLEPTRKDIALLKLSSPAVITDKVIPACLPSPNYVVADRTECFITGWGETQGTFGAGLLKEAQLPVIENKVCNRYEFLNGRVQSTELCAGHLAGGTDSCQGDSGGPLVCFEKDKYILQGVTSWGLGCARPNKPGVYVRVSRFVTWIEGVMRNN
T3 sequence (P00747 97-580 partner limits assumed): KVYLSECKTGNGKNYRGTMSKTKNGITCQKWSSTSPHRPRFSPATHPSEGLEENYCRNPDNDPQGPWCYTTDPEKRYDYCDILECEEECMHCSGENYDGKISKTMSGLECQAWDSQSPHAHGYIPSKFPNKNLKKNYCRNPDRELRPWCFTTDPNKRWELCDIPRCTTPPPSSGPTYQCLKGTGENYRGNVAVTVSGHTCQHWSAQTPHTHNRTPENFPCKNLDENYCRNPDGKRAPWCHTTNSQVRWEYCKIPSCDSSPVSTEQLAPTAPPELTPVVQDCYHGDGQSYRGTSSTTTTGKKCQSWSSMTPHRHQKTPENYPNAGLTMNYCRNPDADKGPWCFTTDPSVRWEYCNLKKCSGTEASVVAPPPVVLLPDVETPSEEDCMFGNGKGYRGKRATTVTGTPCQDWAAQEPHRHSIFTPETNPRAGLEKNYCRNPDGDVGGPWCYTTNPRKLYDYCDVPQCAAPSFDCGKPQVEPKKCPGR

Compound | Kass × 10^6 (L/mole) Human Thrombin [1] | Kass × 10^6 (L/mole) Xa [2] | Kass × 10^6 (L/mole) Trypsin [3] | Kass × 10^6 (L/mole) Plasmin [4] | Human Plasma Anticoagulation 2x Clotting time TT [5] | Human Plasma Anticoagulation 2x Clotting time APTT [6] | Human Plasma Anticoagulation 2x Clotting time PT [7] | Kass × 10^6 (L/mole) t-PA [8]
N=C(N)Nc1ccc(CNC(=O)[C@@H]2CCCN2C(=O)[C@@H]2NCC[C@@H]3CCCC[C@@H]32)cc1 [Example 38, D-1-Piq-Pro-p-NHCH2 C6 H4 NHC(NH)NH2.2HCl] | 1.1 × 10^6 L/mole | < 0.001 × 10^6 L/mole | 0.07 × 10^6 L/mole | < 0.001 × 10^6 L/mole | 540 ng/mL | 6,100 ng/mL | 11,100 ng/mL | –
CCS(=O)(=O)N[C@H](Cc1ccccc1)C(=O)N1CCC[C@H]1C(=O)NCc1cccc(C(=N)N)c1 [Example 24, EtSO2 -D-Phe-Pro-m-NHCH2 -C6 H4 C(=NH)NH2.HCl] | – | – | – | < 0.001 × 10^6 L/mole | – | – | – | < 0.001 × 10^6 L/mole
N=C(N)Nc1cccc(CCNC(=O)[C@@H]2CCCN2C(=O)[C@@H]2NCC[C@@H]3CCCC[C@@H]32)c1 [Example 41, D-1-Piq-Pro-m-NHCH2 CH2 C6 H4 NHC(NH)NH2.2HCl] | 0.01 × 10^6 L/mole | < 0.001 × 10^6 L/mole | < 0.001 × 10^6 L/mole | < 0.001 × 10^6 L/mole | 82,200 ng/mL | > 91,000 ng/mL | > 91,000 ng/mL | –
Cl.Nc1ccc(CNC(=O)[C@@H]2CCCN2C(=O)[C@@H](CC2CCCCC2)NCC(=O)O)c(F)c1 [Example 64, HO2 CCH2 -D-Cha-Pro-4-NHCH2 -3-F-C6 H3 NH2.HCl] | 15 × 10^6 L/mole | 0.01 × 10^6 L/mole | – | – | 23 ng/mL | 900 ng/mL | 650 ng/mL | –
O=C(O)CN[C@H](CC1CCCCC1)C(=O)N1CCC[C@H]1C(=O)NCC1CCNCC1 [Example 53, HO2 CCH2 -D-Cha-Pro-4-NHCH2 -piperidine.HCl] | – | – | – | < 0.001 × 10^6 L/mole | – | – | – | < 0.001 × 10^6 L/mole
HOOCCH2 -D-Phe-Pro(4-cis-isoamyl)-p-NHCH2 C6 H4 C(NH)NH2.HCl [Example 50] | 40 × 10^6 L/mole | 4.3 × 10^6 L/mole | – | 1.8 × 10^6 L/mole | 35 ng/mL | 460 ng/mL | 420 ng/mL | 0.04 × 10^6 L/mole
CCS(=O)(=O)N[C@H](Cc1ccccc1)C(=O)N1CCC[C@H]1C(=O)NCCc1cccc(N=C(N)N)c1.Cl [Example 37, EtSO2 -D-Phe-Pro-m-NHCH2 CH2 C6 H4 NHC(NH)NH2.HCl] | 0.02 × 10^6 L/mole | < 0.009 × 10^6 L/mole | – | – | > 9,000 ng/mL | > 9,000 ng/mL | > 9,000 ng/mL | –
Cl.N=C(N)c1ccc(CNC(=O)CN(CCc2ccccc2)C(=O)CNCC(=O)O)cc1 [Example 89, HOOCCH2 -Gly-N-C6 H5 CH2 CH2 Gly-p-NHCH2 C6 H4 C(NH)NH2.HCl] | 0.14 × 10^6 L/mole | 0.071 × 10^6 L/mole | – | – | 570 ng/mL | 51,000 ng/mL | 37,000 ng/mL | –
CCC(CC)C(=O)N[C@@H](CCS(C)(=O)=O)C(=O)N1CCC[C@H]1C(=O)NCc1ccc(C(=N)N)cc1 [Example 91, (C2 H5)2 CHCO-Met(O2)-Pro-p-NHCH2 C6 H4 C(NH)NH2.HCl] | 3.6 × 10^6 L/mole | 0.007 × 10^6 L/mole | – | – | 63 ng/mL | 3,000 ng/mL | 3,500 ng/mL | –
N=C(N)Nc1cccc(CNC(=O)[C@@H]2CCCN2C(=O)[C@@H]2NCC[C@@H]3CCCC[C@@H]32)c1 [Example 40, D-1-Piq-Pro-m-NHCH2 C6 H4 NHC(NH)NH2.2HCl] | 0.03 × 10^6 L/mole | < 0.001 × 10^6 L/mole | 0.01 × 10^6 L/mole | < 0.001 × 10^6 L/mole | 35,100 ng/mL | > 91,000 ng/mL | > 91,000 ng/mL | –
NCC1CCC(CNC(=O)[C@@H]2CCCN2C(=O)[C@@H](CC2CCCCC2)NCC(=O)O)CC1 (stereo partly drawn) [Example 79, HO2 CCH2 -D-Cha-Pro-4-NHCH2 C6 H10 CH2 NH2.HCl] | 2.0 × 10^6 L/mole | – | 0.24 × 10^6 L/mole | – | 140 ng/mL | 1,700 ng/mL | 2,400 ng/mL | –
N=C(N)c1ccc(CNC(=O)[C@@H]2CCCN2C(=O)[C@@H](CC2CCCCC2)NCC(=O)O)nc1 [Example 66, HO2 CCH2 -D-Cha-Pro-2-NHCH2 -5-amidinopyridine.HCl] | 120 × 10^6 L/mole | – | 4.6 × 10^6 L/mole | – | 7.9 ng/mL | 180 ng/mL | 270 ng/mL | –
N=C(N)NCc1ccc(CNC(=O)[C@@H]2CCCN2C(=O)[C@H](N)Cc2ccccc2)cc1 [Example 9, D-Phe-Pro-p-NHCH2 -C6 H4 CH2 NHC(NH)NH2.2TFA] | – | – | – | – | – | – | – | < 0.001 × 10^6 L/mole
N=C(N)Nc1ccc(CCNC(=O)[C@@H]2CCCN2C(=O)[C@@H]2NCC[C@@H]3CCCC[C@@H]32)cc1 [Example 39, D-1-Piq-Pro-p-NHCH2 CH2 C6 H4 NHC (NH) NH2.2HCl] | 0.12 × 10^6 L/mole | < 0.001 × 10^6 L/mole | < 0.02 × 10^6 L/mole | < 0.001 × 10^6 L/mole | 5,300 ng/mL | 69,200 ng/mL | 78,600 ng/mL | –
N=C(N)c1ccc(CNC(=O)[C@@H]2CCCN2C(=O)[C@@H](CCC2CCCCC2)NCC(=O)O)cc1 [Example 88, HOOCCH2 -D-hCha-Pro-p-NHCH2 C6 H4 C(NH)NH2.HCl] | 410 × 10^6 L/mole | 3.9 × 10^6 L/mole | – | – | 4 ng/mL | 100 ng/mL | 200 ng/mL | –
HOOCCH2 -D-hPhe-Pro-p-NHCH2 C6 H4 C(NH)NH2.HCl [Example 87] | 30 × 10^6 L/mole | 2.5 × 10^6 L/mole | – | – | 9 ng/mL | 260 ng/mL | 310 ng/mL | –
Cl.N=C(N)N1CC=C(CNC(=O)[C@@H]2CCCN2C(=O)[C@@H](CC2CCCCC2)NCC(=O)O)CC1 [Example 70, HO2 CCH2 -D-Cha-Pro-4-NHCH2 -1-amidino-3,4-dehydro-piperidine.HCl] | 430 × 10^6 L/mole | – | 9.8 × 10^6 L/mole | – | 2 ng/mL | 160 ng/mL | 180 ng/mL | –
CCS(=O)(=O)N[C@H](CC1CCCCC1)C(=O)N1CCC[C@H]1C(=O)NCc1ccnc(N)c1.Cl [Example 83, EtSO2 -D-Cha-Pro-4-NHCH2 -2-aminopyridine.HCl] | 2.4 × 10^6 L/mole | – | 0.03 × 10^6 L/mole | – | 91 ng/mL | 1,000 ng/mL | 1,300 ng/mL | –
